# System: hRXR α, β, or γ
# Assay: Transactivation assay (RARE-Luc dual luciferase reporter in HEK-293 cells), activity relative to LG268
# Format: cell-based, human
# Settings: compound at 1 µM, 24 h; luciferase activity expressed relative to LG268
# Method: HEK-293 cells (ATCC) were seeded one day prior to transfection. For assessing EC50 of activation of RXR isoforms 2 μg of hRXR α, β, or γ (OriGENE, USA) over-expressing vector, 1 μg of plasmid expressing firefly luciferase under RARE element (RARE-Luc) and 25 ng of renilla luciferase vector (QIAGEN, USA) were co-transfected using lipofectamine reagent. Post 24 h of transfection, cells were treated with different concentrations of RXR agonists (100 nM, 300 nM and 1 uM) for 24 h followed by estimation of luciferase activity using Dual Luciferase Reporter Assay System (Promega). Luciferase activity was normalized to that of renilla luciferase. The activities of the RXR compounds were expressed relative to LG268, a known RXR agonist.
row,Structure (SMILES),Activity at 1 µM
1,"CCN(c1ccc(C(=O)O)cc1)c1cc2c(s1)C(C)(C)CCC2(C)C [Compound 27, 4-[Ethyl(4,4,7,7-tetramethyl-4,5,6,7-tetrahydro-1-benzothiophen-2-yl)amino]benzoic acid]",***** (>1)
2,"Cc1c(-n2nnc3cc(C(=O)O)ccc32)sc2c1C(C)(C)CCC2(C)C [Compound 28, 1-(3,4,4,7,7-Pentamethyl-4,5,6,7-tetrahydro-1-benzothiophen-2-yl)-1H-benzotriazole-5-carboxylic acid]",* (<0.7)
3,"Cc1c(/C=C/c2ccc(C(=O)O)cc2)sc2c1C(C)(C)CCC2(C)C [Compound 29, 4-[(E)-2-(3,4,4,7,7-Pentamethyl-4,5,6,7-tetrahydro-1-benzothiophen-2-yl)ethenyl]benzoic acid]",***** (>1)
4,"Cc1c(/C=C\c2ccc(C(=O)O)cc2)sc2c1C(C)(C)CCC2(C)C [Compound 30, 4-[(Z)-2-(3,4,4,7,7-Pentamethyl-4,5,6,7-tetrahydro-1-benzothiophen-2-yl)ethenyl]benzoic acid]",***** (>1)
5,"Cc1c(C2CC2c2ccc(C(=O)O)cc2)sc2c1C(C)(C)CCC2(C)C (centres unmarked) [Compound 31, 4-[2-(3,4,4,7,7-Pentamethyl-4,5,6,7-tetrahydro-1-benzothiophen-2-yl)cyclopropyl]benzoic acid]",** (>0.7 and <0.8)
6,"CCn1c(-c2ccc(C(=O)O)cc2)ccc1-c1sc2c(c1C)C(C)(C)CCC2(C)C [Compound 32, 4-[1-Ethyl-5-(3,4,4,7,7-pentamethyl-4,5,6,7-tetrahydro-1-benzothiophen-2-yl)-1H-pyrrol-2-yl]benzoic acid]",* (<0.7)
7,"CN(c1ccc(C(=O)O)cc1)c1nc2c(s1)C(C)(C)CCC2(C)C [Compound 33, 4-[Methyl(4,4,7,7-tetramethyl-4,5,6,7-tetrahydro-1,3-benzothiazol-2-yl)amino]benzoic acid]",*** (>0.8 and <0.9)
8,"CN(c1ccc(C(=O)O)cc1)c1nc2c(s1)C(C)(C)C=CC2(C)C [Compound 34, 4-[Methyl(4,4,7,7-tetramethyl-4,7-dihydro-1,3-benzothiazol-2-yl)amino]benzoic acid]",** (>0.7 and <0.8)
9,"CCOC1CC(C)(C)c2sc(N(C)c3ccc(C(=O)O)cc3)nc2C1(C)C (centres unmarked) [Compound 35, 4-[(5-Ethoxy-4,4,7,7-tetramethyl-4,5,6,7-tetrahydro-1,3-benzothiazol-2-yl)(methyl)amino]benzoic acid]",*** (>0.8 and <0.9)
10,"CC1(C)CCC(C)(C)c2sc(N(c3ccc(C(=O)O)cc3)C3CC3)nc21 [Compound 36, 4-[Cyclopropyl(4,4,7,7-tetramethyl-4,5,6,7-tetrahydro-1,3-benzothiazol-2-yl)amino]benzoic acid]",***** (>1)
11,"CC1(C)CCC(C)(C)c2sc(N(c3ccc(C(=O)O)cn3)C3CC3)nc21 [Compound 37, 6-[Cyclopropyl(4,4,7,7-tetramethyl-4,5,6,7-tetrahydro-1,3-benzothiazol-2-yl)amino]pyridine-3-carboxylic acid]",***** (>1)
12,"CC1(C)CCC(C)(C)c2sc(N(CC3CC3)c3ccc(C(=O)O)cc3)nc21 [Compound 38, 4-[(Cyclopropylmethyl) (4,4,7,7-tetramethyl-4,5,6,7-tetrahydro-1,3-benzothiazol-2-yl)amino]benzoic acid]",*** (>0.8 and <0.9)
13,"CCN(c1ccc(C(=O)O)cn1)c1nc2c(s1)C(C)(C)CCC2(C)C [Compound 39, 6-[Ethyl(4,4,7,7-tetramethyl-4,5,6,7-tetrahydro-1,3-benzothiazol-2-yl)amino]pyridine-3-carboxylic acid]",***** (>1)
14,"CCN(c1ccc(C(=O)O)cn1)c1nc2c(s1)C(C)(C)CC(=O)C2(C)C [Compound 41, 6-[Ethyl(4,4,7,7-tetramethyl-5-oxo-4,5,6,7-tetrahydro-1,3-benzothiazol-2-yl)amino]pyridine-3-carboxylic acid]",* (<0.7)
